Literature values, collected in US20030073219A1, “Crystal structure” (priority 2001, published 2003).

Target: ApbA protein (ketopantoate reductase) (Salmonella typhimurium, UniProt P37402)
Settings: purified ApbA protein from S. typhimurium; substrate/cofactor KM; read-out: apparent KM

Sequence of ApbA protein (ketopantoate reductase) (P37402 whole entry): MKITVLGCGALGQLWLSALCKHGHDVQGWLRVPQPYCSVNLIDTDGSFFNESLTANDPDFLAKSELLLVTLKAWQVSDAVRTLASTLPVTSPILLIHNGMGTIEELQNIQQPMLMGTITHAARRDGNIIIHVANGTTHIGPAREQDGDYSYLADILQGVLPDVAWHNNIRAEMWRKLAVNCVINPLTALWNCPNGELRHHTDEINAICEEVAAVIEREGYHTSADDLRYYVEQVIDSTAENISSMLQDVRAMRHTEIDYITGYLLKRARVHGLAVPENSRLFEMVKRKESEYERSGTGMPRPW

Row | Compound | Km
1 | CC(C)(CO)C(=O)C(=O)O [ketopantoate] | 740 µM
2 | NC(=O)C1=CN([C@@H]2O[C@H](COP(=O)(O)OP(=O)(O)OC[C@H]3O[C@@H](n4cnc5c(N)ncnc54)[C@H](OP(=O)(O)O)[C@@H]3O)[C@@H](O)[C@H]2O)C=CC1 [NADPH] | 770 µM
